Values after ≈ are worked out from the molar mass of the structure shown. Like-named read-outs stand apart in the source and are kept apart here.
Tested on: Enterobacterales
Assay: MIC, broth microdilution, CDC/FDA Antibiotic Resistance Isolate Bank (Example 7, Tables 8, 11, 12)
Type: cell-based
Conditions: for MIC: read-out: MIC

SMILES: CO/N=C(\C(=O)N[C@@H]1C(=O)N2C(C(=O)[O-])=C(C[n+]3ccn4ncccc43)CS[C@H]12)c1nsc(N)n1 [Cefozopran, cefozopran]
- MIC50 (154 strains of Enterobacterales, read-out: MIC50): 64 µg/mL (≈ 124 µM)
- MIC80 (154 strains of Enterobacterales, read-out: MIC80): > 64 µg/mL
- MIC90 (154 strains of Enterobacterales, read-out: MIC90): > 64 µg/mL
- MIC (Citrobacter freundii, KUB No. 5654, AR Bank # 157): > 64 µg/mL
- MIC (Enterobacter cloacae, Enterobacter cloacae KUB No. 5792, AR Bank #448): > 64 µg/mL
- MIC (Enterobacter cloacae, Enterobacter cloacae KUB No. 5807, AR Bank #501): > 64 µg/mL
- MIC (Enterobacter cloacae, Enterobacter cloacae KUB No. 5808, AR Bank #502): > 64 µg/mL
- MIC (Enterobacter cloacae, Enterobacter cloacae complex, KUB No. 5661, AR Bank # 164): 1 µg/mL (≈ 1.94 µM)
- MIC (Enterobacter cloacae, Enterobacter cloacae group, KUB No. 5629, AR Bank # 132): 0.25 µg/mL (≈ 0.485 µM)
- MIC (Enterobacter cloacae, KUB No. 5529, AR Bank# 32): 4 µg/mL (≈ 7.76 µM)
- MIC (Enterobacter cloacae, KUB No. 5535, AR Bank# 38): > 64 µg/mL
- MIC (Enterobacter cloacae, KUB No. 5547, AR Bank# 50): 8 µg/mL (≈ 15.5 µM)
- MIC (Enterobacter cloacae, KUB No. 5550, AR Bank# 53): > 64 µg/mL
- MIC (Enterobacter cloacae, KUB No. 5557, AR Bank# 60): 2 µg/mL (≈ 3.88 µM)
- MIC (Enterobacter cloacae, KUB No. 5562, AR Bank # 65): 16 µg/mL (≈ 31 µM)
- MIC (Enterobacter cloacae, KUB No. 5569, AR Bank # 72): 16 µg/mL (≈ 31 µM)
- MIC (Enterobacter cloacae, KUB No. 5570, AR Bank # 73): 0.25 µg/mL (≈ 0.485 µM)
- MIC (Enterobacter cloacae, KUB No. 5590, AR Bank # 93): 32 µg/mL (≈ 62.1 µM)
- MIC (Enterobacter cloacae, KUB No. 5660, AR Bank # 163): > 64 µg/mL
- MIC (Enterobacter cloacae, KUB No. 5761, AR Bank # 365): 16 µg/mL (≈ 31 µM)
- MIC (Enterobacter cloacae, KUB No. 5762, AR Bank # 366): 16 µg/mL (≈ 31 µM)
- MIC (Enterobacter cloacae, KUB No. 5763, AR Bank # 367): 4 µg/mL (≈ 7.76 µM)
- MIC (Enterobacter cloacae, KUB No. 5778, AR Bank # 432): > 64 µg/mL
- MIC (Enterobacter cloaccae, KUB No. 5651, AR Bank # 154): > 64 µg/mL
- MIC (Enterobacter clooreae, KUB No. 5633, AR Bank # 136): > 64 µg/mL
- MIC (Escherichia coli, Escherichia coli KUB No. 5783, AR Bank #437): > 64 µg/mL
- MIC (Escherichia coli, Escherichia coli KUB No. 5794, AR Bank #450): > 64 µg/mL
- MIC (Escherichia coli, Escherichia coli KUB No. 5795, AR Bank #451): 64 µg/mL (≈ 124 µM)
- MIC (Escherichia coli, Escherichia coli KUB No. 5796, AR Bank #452): > 64 µg/mL
- MIC (Escherichia coli, Escherichia coli KUB No. 5803, AR Bank #861): > 64 µg/mL
- MIC (Escherichia coli, KUB No. 5558, AR Bank # 61): 16 µg/mL (≈ 31 µM)
- MIC (Escherichia coli, KUB No. 5564, AR Bank # 67): 0.25 µg/mL (≈ 0.485 µM)
- MIC (Escherichia coli, KUB No. 5566, AR Bank # 69): > 64 µg/mL
- MIC (Escherichia coli, KUB No. 5574, AR Bank # 77): 0.06 µg/mL (≈ 0.116 µM)
- MIC (Escherichia coli, KUB No. 5578, AR Bank # 81): 0.5 µg/mL (≈ 0.97 µM)
- MIC (Escherichia coli, KUB No. 5581, AR Bank # 84): 0.25 µg/mL (≈ 0.485 µM)
- MIC (Escherichia coli, KUB No. 5582, AR Bank # 85): 8 µg/mL (≈ 15.5 µM)
- MIC (Escherichia coli, KUB No. 5583, AR Bank # 86): > 64 µg/mL
- MIC (Escherichia coli, KUB No. 5586, AR Bank # 89): 0.5 µg/mL (≈ 0.97 µM)
- MIC (Escherichia coli, KUB No. 5601, AR Bank # 104): 32 µg/mL (≈ 62.1 µM)
- MIC (Escherichia coli, KUB No. 5611, AR Bank # 114): 16 µg/mL (≈ 31 µM)
- MIC (Escherichia coli, KUB No. 5615, AR Bank # 118): > 64 µg/mL
- MIC (Escherichia coli, KUB No. 5616, AR Bank # 119): > 64 µg/mL
- MIC (Escherichia coli, KUB No. 5625, AR Bank # 128): > 64 µg/mL
- MIC (Escherichia coli, KUB No. 5634, AR Bank # 137): > 64 µg/mL
- MIC (Escherichia coli, KUB No. 5646, AR Bank # 149): > 64 µg/mL
- MIC (Escherichia coli, KUB No. 5647, AR Bank # 150): > 64 µg/mL
- MIC (Escherichia coli, KUB No. 5648, AR Bank # 151): > 64 µg/mL
- MIC (Escherichia coli, KUB No. 5659, AR Bank # 162): > 64 µg/mL
- MIC (Escherichia coli, KUB No. 5764, AR Bank # 368): 0.06 µg/mL (≈ 0.116 µM)
- MIC (Escherichia coli, KUB No. 5765, AR Bank # 369): 32 µg/mL (≈ 62.1 µM)
- MIC (Escherichia coli, KUB No. 5766, AR Bank # 370): 64 µg/mL (≈ 124 µM)
- MIC (Escherichia coli, KUB No. 5767, AR Bank # 371): 32 µg/mL (≈ 62.1 µM)
- MIC (Escherichia coli, KUB No. 5768, AR Bank # 372): > 64 µg/mL
- MIC (Escherichia coli, KUB No. 5769, AR Bank # 373): 0.5 µg/mL (≈ 0.97 µM)
- MIC (Escherichia coli, KUB No. 5770, AR Bank # 374): 1 µg/mL (≈ 1.94 µM)
- MIC (Escherichia coli, KUB No. 5774, AR Bank # 378): ≤ 0.03 µg/mL
- MIC (Escherichia coli, KUB No. 5779, AR Bank # 433): 16 µg/mL (≈ 31 µM)
- MIC (Escherichia coli, KUB No. 5780, AR Bank # 434): 64 µg/mL (≈ 124 µM)
- MIC (Escherichia coli, KUB No. 5781, AR Bank # 435): > 64 µg/mL
- MIC (Escherichia, KUB No. 57, AR Bank # 436 (row cut off)): 1 µg/mL (≈ 1.94 µM)
- MIC (Klebsiella aerogenes, Enterobacter aerogenes, KUB No. 5559, AR Bank # 62): 0.5 µg/mL (≈ 0.97 µM)
- MIC (Klebsiella aerogenes, Enterobacter aerogenes, KUB No. 5571, AR Bank # 74): 0.5 µg/mL (≈ 0.97 µM)
- MIC (Klebsiella aerogenes, Enterobacter aerogenes, KUB No. 5658, AR Bank # 161): 32 µg/mL (≈ 62.1 µM)
- MIC (Klebsiella aerogenes, Enterobacter aerogenes, KUB No. 5777, AR Bank # 431): 4 µg/mL (≈ 7.76 µM)
- MIC (Klebsiella oxytoca, KUB No. 5568, AR Bank # 71): > 64 µg/mL
- MIC (Klebsiella oxytoca, KUB No. 5644, AR Bank # 147): 1 µg/mL (≈ 1.94 µM)
- MIC (Klebsiella oxytoca, KUB No. 5771, AR Bank # 375): 0.5 µg/mL (≈ 0.97 µM)
- MIC (Klebsiella oxytoca, KUB No. 5776, AR Bank # 380): 32 µg/mL (≈ 62.1 µM)
- MIC (Klebsiella ozaenae, KUB No. 5548, AR Bank# 51): > 64 µg/mL
- MIC (Klebsiella ozaenae, KUB No. 5593, AR Bank # 96): > 64 µg/mL
- MIC (Klebsiella pnemnonine, KUB No. 5758, AR Bank # 362): 32 µg/mL (≈ 62.1 µM)
- MIC (Klebsiella pneumoniae, KUB No. 55, AR Bank# 47): > 64 µg/mL
- MIC (Klebsiella pneumoniae, KUB No. 5531, AR Bank# 34): 4 µg/mL (≈ 7.76 µM)
- MIC (Klebsiella pneumoniae, KUB No. 5536, AR Bank# 39): > 64 µg/mL
- MIC (Klebsiella pneumoniae, KUB No. 5537, AR Bank# 40): > 64 µg/mL
- MIC (Klebsiella pneumoniae, KUB No. 5538, AR Bank# 41): > 64 µg/mL
- MIC (Klebsiella pneumoniae, KUB No. 5540, AR Bank# 43): > 64 µg/mL
- MIC (Klebsiella pneumoniae, KUB No. 5541, AR Bank# 44): > 64 µg/mL
- MIC (Klebsiella pneumoniae, KUB No. 5543, AR Bank# 46): > 64 µg/mL
- MIC (Klebsiella pneumoniae, KUB No. 5546, AR Bank# 49): > 64 µg/mL
- MIC (Klebsiella pneumoniae, KUB No. 5563, AR Bank # 66): > 64 µg/mL
- MIC (Klebsiella pneumoniae, KUB No. 5565, AR Bank # 68): > 64 µg/mL
- MIC (Klebsiella pneumoniae, KUB No. 5572, AR Bank # 75): > 64 µg/mL
- MIC (Klebsiella pneumoniae, KUB No. 5573, AR Bank # 76): 64 µg/mL (≈ 124 µM)
- MIC (Klebsiella pneumoniae, KUB No. 5576, AR Bank # 79): > 64 µg/mL
- MIC (Klebsiella pneumoniae, KUB No. 5577, AR Bank # 80): > 64 µg/mL
- MIC (Klebsiella pneumoniae, KUB No. 5584, AR Bank # 87): 32 µg/mL (≈ 62.1 µM)
- MIC (Klebsiella pneumoniae, KUB No. 5594, AR Bank # 97): > 64 µg/mL
- MIC (Klebsiella pneumoniae, KUB No. 5595, AR Bank # 98): 16 µg/mL (≈ 31 µM)
- MIC (Klebsiella pneumoniae, KUB No. 5603, AR Bank # 106): > 64 µg/mL
- MIC (Klebsiella pneumoniae, KUB No. 5604, AR Bank # 107): > 64 µg/mL
- MIC (Klebsiella pneumoniae, KUB No. 5606, AR Bank # 109): > 64 µg/mL
- MIC (Klebsiella pneumoniae, KUB No. 5609, AR Bank # 112): 32 µg/mL (≈ 62.1 µM)
- MIC (Klebsiella pneumoniae, KUB No. 5610, AR Bank # 113): > 64 µg/mL
- MIC (Klebsiella pneumoniae, KUB No. 5612, AR Bank # 115): 32 µg/mL (≈ 62.1 µM)
- MIC (Klebsiella pneumoniae, KUB No. 5614, AR Bank # 117): > 64 µg/mL
- MIC (Klebsiella pneumoniae, KUB No. 5617, AR Bank # 120): 32 µg/mL (≈ 62.1 µM)
- MIC (Klebsiella pneumoniae, KUB No. 5622, AR Bank # 125): 32 µg/mL (≈ 62.1 µM)
- MIC (Klebsiella pneumoniae, KUB No. 5623, AR Bank # 126): 64 µg/mL (≈ 124 µM)
- MIC (Klebsiella pneumoniae, KUB No. 5626, AR Bank # 129): 32 µg/mL (≈ 62.1 µM)
- MIC (Klebsiella pneumoniae, KUB No. 5632, AR Bank # 135): > 64 µg/mL
- MIC (Klebsiella pneumoniae, KUB No. 5635, AR Bank # 138): > 64 µg/mL

— patent publication EP4635500A1, “THERAPEUTIC AGENT FOR BACTERIAL INFECTION” (Sumitomo Pharma Co., Ltd., priority 2022, dated 2024)
